Assay results: US20200170990A1, “METHOD FOR TREATING SCHNITZLER'S SYNDROME” (OLATEC THERAPEUTICS LLC, priority 2017, published 2020)

Tests used:
[1] = system: caspase-1 (p10) in J774A.1 cells; assay: Western blot for caspase-1 (p45 and p10) in J774A.1 cells after LPS/ATP stimulation; format: cell-based, mouse
Method: (§1) J774A.1 murine macrophages cells were stimulated with 1 μg/ml lipopolysaccharide (LPS) for 4 hours and either nigericin (NIG, 10 μM) or ATP (5 mM) was added for 1 hour. Dapansutrile OLT1177® was added to the cells either 30 minutes following LPS stimulation or at the same time as ATP.
A subunit of activated caspase-1 (p10) was reduced in J774A.1 cells in the presence of dapansutrile.

[2] = system: caspase-1 activity in J774A.1 cells; assay: Caspase-1 activity in J774A.1 cell lysates after LPS and nigericin stimulation; format: cell-based, mouse; conditions: 50 μM, LPS/NIG set at 100%, n=3, p<0.05
Method: as §1
Caspase-1 activity is expressed as percent change of the mean value of each assay (n=3) with LPS/NIG set at 100%. Caspase-1 (Cas-1) activity was reduced by 35% (p<0.05) in an enzymatic assay of cell lysate from stimulated cells in the presence of dapansutrile, comparing with control.

[3] = system: IL-1β release from human monocytes-derived macrophages; assay: Suppression of IL-1β release from human monocytes-derived macrophages (LPS priming, nigericin release, ELISA); format: cell-based
Method: Peripheral blood mononuclear cells (PBMCs) were isolated from blood of 11 healthy human donors and differenciates in macrophages using GM-CSF (5 ng/ml) for 5 days. They were stimulated with 1 μg/mL with lipopolysaccharide (LPS, priming phase) at time zero. At 30 minutes, they were incubated with different concentrations of dapansutrile (OLT1177®) from 0.001-50 μM. At 4 hours, 10 μM of nigericin (NIG, release phase) was added. At the end of an 5 hour incubation period, the supernatant was harvested and assayed for IL-1β using respective ELISA kits following manafacturer's protocols.

[4] = system: mouse IL-1β in synovial membrane; assay: Zymosan-induced knee arthritis in mice: IL-1β in synovial membrane (ELISA); format: in vivo; conditions: 600 mg/kg oral gavage, 24 hours, vs untreated mice
Method: (§2) Arthritis was induced in mice by intra-articular injection of zymosan (180 μg) into the knee joint (at time zero) of both knees in each mouse. Mice were treated by oral gavage with vehicle (water, n=5) or dapansutrile in vehicle (600 mg/kg, n=4) at times −25 hr, −13 hr, and −1 hr. After zymosan injection at time zero, mice were further treated with vehicle or dapansutrile (600 mg/kg) at times +11 hr and +23 hr. Mice were sacrificed 24 hours following the Zymosan intraarticulr idministration.
In addition, synovial membrane was taken from one knee per mouse and the cells were lysed for measurement of mouse IL-1β, using an ELISA kit from R&D Systems, Inc., following manufacturer's protocols. The results are shown as mean±standard error of mean and statistical evaluation is performed.

[5] = system: zymosan-induced knee joint swelling in mice; assay: Zymosan-induced knee arthritis in mice: macroscopic joint swelling; format: in vivo; conditions: 600 mg/kg oral gavage, zymosan 180 μg intra-articular, 24 hours, vs vehicle-treated mice
Method: Zymosan injected directly into the knee joint of mice elicits an inflammatory response and is used as a model of arthritis (Verschure et al, Ann. Rheum Dis. 53:455-460, 1994). Endpoints measured in this model include knee joint swelling score, cytokine levels in the synovial tissue and microscopic pathology of the knee.
as §2
Macroscopic joint swelling was assessed on all knees after the skin is removed using a scoring system ranging from 0 to 3, with 0 being no swelling and 3 being severe swelling.

[6] = in vivo; cited from earlier work

| Compound | Subunit of activated caspase-1 (p10), Western blot [1] | Reduction of caspase-1 activity [2] | Release of IL-1β from stimulated monocytes-derived macrophages ([3]; LPS priming, nigericin release, compared to control) | Concentration at which maximum suppression effect on IL-1β release was observed ([3]; human monocytes-derived macrophages, LPS 1 μg/mL + nigericin 10 μM, tested 0.001-50 μM) | Level of IL-1β in synovial membrane [4] | Macroscopic joint swelling (score 0 to 3) [5] | Half-life [6] |
| --- | --- | --- | --- | --- | --- | --- | --- |
| CS(=O)(=O)CCC#N [dapansutrile, 3-methanesulfonylpropionitrile] | reduced | 35% | suppresses the release of IL-1β | 1 µM | significantly reduced | significant reduction in the joint swelling | – |
| Canakinumab: fully human selective monoclonal anti-IL-1β antibody | – | – | – | – | – | – | 28 days |
